Laboratory results published in patent publication US7932384B2, “Reverse-turn mimetics and method relating thereto” (Choongwae Pharma Corporation, priority 2001, dated 2011).
In brackets after ≈: the same amount, converted by molar mass.

tested on: TCF4/β-catenin transcriptional pathway; assay: Reporter gene assay (TOPFlash luciferase) in SW480 cells; format: cell-based; details: Homo sapiens, SW480, Table 4, selected library compounds, Reporter gene assay as described in Example 6; read-out: IC50
Method: SW480 cells were transfected with the usage of Superfect™ transfect reagent (Qiagen, 301307). Cells were trypsinized briefly 1 day before transfection and plated on 6 well plate (5×10^5 cells/well) so that they were 50-80% confluent on the day of transfection.
Four microgram (TOPFlash) and one microgram (pRL-null) of DNAs were diluted in 150 μl of serum-free medium, and 30 μl of Superfect™ transfect reagent was added. The DNA-Superfect mixture was incubated at room temperature for 15 min, and then, 1 ml of 10% FBS DMEM was added to this complex for an additional 3 hours of incubation. While complexes were forming, cells were washed with PBS twice without antibiotics.
The DNA-Superfect™ transfect reagent complexes were applied to the cells before incubating at 37° C. at 5% CO2 for 3 hours. After incubation, recovery medium with 10% FBS was added to bring the final volume to 1.18 ml. After 3 hours incubation, the cells were harvested and reseeded to 96 well plate (3×10^4 cells/well). After overnight incubation at 37° C. at 5% CO2, the cells were treated with Compound A for 24 hours. Finally, the activity was checked by means of luciferase assay (Promega, E1960).

Structure (SMILES)	IC50 [µM]
COC(=O)N1C2CN(CCc3ccc(F)cc3)C(=O)C(Cc3cccc4ccccc34)N2C(=O)CN1Cc1ccccc1 (centres unmarked) [Compound 1]	12.8
C=CCN1CC(=O)N2[C@@H](Cc3ccc(OP(=O)(O)O)cc3)C(=O)N(Cc3cccc4c3OCCN4C)C[C@@H]2N1C(=O)NCc1ccccc1 [Compound 169]	1 ± 0.1

same assay, conditions: Homo sapiens, SW480, Table 10, prodrug compounds, reporter gene assay TopFlash; read-out: RGA, TopF IC50

Structure (SMILES)	IC50 [µM]
CN1CC(=O)N2[C@@H](Cc3ccc(OP(=O)(O)O)cc3)C(=O)N(Cc3cccc4ccccc34)C[C@@H]2N1C(=O)NCc1ccccc1 [Compound 1]	4.2

tested on: SW480 cells; assay: Growth inhibition assay (MTS or sulforhodamine B), SW480; format: cell-based; details: Homo sapiens, SW480, 48 h, Table 5, MTS or sulforhodamine B assay, SW480, 48 hours; read-out: Growth Inhibition (GI50, uM) SW480

Structure (SMILES)	GI50 [µM]
C=CCN1CC(=O)N2[C@@H](Cc3ccc(O)cc3)C(=O)N(Cc3ccc(F)cc3F)C[C@@H]2N1C(=O)NCc1ccccc1 [Compound 115]	2 ± 0.7
CN1CC(=O)N2[C@@H](Cc3ccc(O)cc3)C(=O)N(Cc3cccc4c3cnn4CCN3CCOCC3)C[C@@H]2N1C(=O)NCc1ccccc1 [Compound 73]	9.2 ± 0.8
CN1CC(=O)N2[C@@H](Cc3ccc(O)cc3)C(=O)N(Cc3cccc4ccccc34)C[C@@H]2N1C(=O)NCc1ccccc1 [Compound 1]	2.28
C=CCN1CC(=O)N2[C@@H](Cc3ccc(O)cc3)C(=O)N(Cc3ccc(F)cc3F)[C@@H](C)[C@@H]2N1C(=O)NCc1ccccc1 [Compound 147]	6.1 ± 0.4
CN1CC(=O)N2[C@@H](Cc3ccc(O)cc3)CN(Cc3ccc(F)cc3F)C[C@@H]2N1C(=O)NCc1ccccc1 [Compound 77]	26.5 ± 6.5
CN1CC(=O)N2[C@@H](Cc3ccc(O)cc3)C(=O)N(Cc3ccc(F)cc3F)C[C@@H]2N1C(=O)NCc1ccccc1 [Compound 13]	1.65
CCOP(=O)(CC(=O)Nc1ccc(C[C@H]2C(=O)N(Cc3cccc4ccccc34)C[C@H]3N2C(=O)CN(C)N3C(=O)NCc2ccccc2)cc1)OCC [Compound 59]	> 50

same assay, conditions: Homo sapiens, SW480, Table 10, prodrug compounds, SW480; read-out: MTS, SW480 (uM) GI50

Structure (SMILES)	GI50 [µM]
CN1CC(=O)N2[C@@H](Cc3ccc(OP(=O)(O)O)cc3)C(=O)N(Cc3cccc4ccccc34)C[C@@H]2N1C(=O)NCc1ccccc1 [Compound 1]	2

tested on: HCT116 cells; assay: Growth inhibition assay (MTS or sulforhodamine B), HCT116; format: cell-based; details: Homo sapiens, HCT-116, 48 h, Table 5, MTS or sulforhodamine B assay, HCT116, 48 hours

Structure (SMILES)	GI50 [µM]
C=CCN1CC(=O)N2[C@@H](Cc3ccc(O)cc3)C(=O)N(Cc3ccc(F)cc3F)C[C@@H]2N1C(=O)NCc1ccccc1 [Compound 115]	1.1 ± 0.04
CN1CC(=O)N2[C@@H](Cc3ccc(O)cc3)C(=O)N(Cc3cccc4c3cnn4CCN3CCOCC3)C[C@@H]2N1C(=O)NCc1ccccc1 [Compound 73]	15.8 ± 2.6
CN1CC(=O)N2[C@@H](Cc3ccc(O)cc3)C(=O)N(Cc3cccc4ccccc34)C[C@@H]2N1C(=O)NCc1ccccc1 [Compound 1]	1.78
C=CCN1CC(=O)N2[C@@H](Cc3ccc(O)cc3)C(=O)N(Cc3ccc(F)cc3F)[C@@H](C)[C@@H]2N1C(=O)NCc1ccccc1 [Compound 147]	5.5 ± 0.4
CN1CC(=O)N2[C@@H](Cc3ccc(O)cc3)CN(Cc3ccc(F)cc3F)C[C@@H]2N1C(=O)NCc1ccccc1 [Compound 77]	10.7 ± 0.8
CN1CC(=O)N2[C@@H](Cc3ccc(O)cc3)C(=O)N(Cc3ccc(F)cc3F)C[C@@H]2N1C(=O)NCc1ccccc1 [Compound 13]	1.59

tested on: survivin; assay: Effects of compounds on survivin expression (Table 9); format: cell-based; details: Table 9, 25 uM
From the text: A plasmid containing luciferase under the control of surviving promoter was constructed and transfected into wild type, CBP+/−, or p300+/−3T3 cells.
(§1) The effects of various compounds having general formula (I) on surviving and TCF4 expression were characterized.

Structure (SMILES)	inhibition at 25 µM [%]
CN1CC(=O)N2[C@@H](CN(Cc3cccc4ccccc34)C(=O)[C@@H]2Cc2ccc(O)cc2)N1C(=O)NCc1ccccc1	99
CN1CC(=O)N2[C@@H](CN(Cc3c(Cl)cc(Cl)c4cccnc34)C(=O)[C@@H]2Cc2ccc(O)cc2)N1C(=O)NCc1ccccc1	58

same assay, conditions: read-out: Survivin % inhibition 5 uM; Table 9, 5 uM

Structure (SMILES)	inhibition at 5 µM [%]
CN1CC(=O)N2[C@@H](CN(Cc3cccc4ccccc34)C(=O)[C@@H]2Cc2ccc(O)cc2)N1C(=O)NCc1ccccc1	100
CN1CC(=O)N2[C@@H](CN(Cc3c(Cl)cc(Cl)c4cccnc34)C(=O)[C@@H]2Cc2ccc(O)cc2)N1C(=O)NCc1ccccc1	6

tested on: TCF4; assay: Effects of compounds on TCF4 expression (Table 9); format: cell-based; details: not given
From the text: as §1

Structure (SMILES)	IC50 [µM]
CN1CC(=O)N2[C@@H](CN(Cc3cccc4ccccc34)C(=O)[C@@H]2Cc2ccc(O)cc2)N1C(=O)NCc1ccccc1	~2
CN1CC(=O)N2[C@@H](CN(Cc3c(Cl)cc(Cl)c4cccnc34)C(=O)[C@@H]2Cc2ccc(O)cc2)N1C(=O)NCc1ccccc1	11.2 ± 1.5

tested on: survivin promoter; assay: Survivin luciferase reporter in SW480 cells; format: cell-based; details: Homo sapiens, SW480, read-out: RGA, Survivin IC50, uM, Table 10, prodrug compounds, reporter gene assay survivin

Structure (SMILES)	IC50 [µM]
CN1CC(=O)N2[C@@H](Cc3ccc(OP(=O)(O)O)cc3)C(=O)N(Cc3cccc4ccccc34)C[C@@H]2N1C(=O)NCc1ccccc1 [Compound 1]	6.4

tested on: not listed separately; assay: physchem; details: 37 °C, pH 1.2, simulated gastric fluid, thermodynamic from solid, Solubility JP1 (pH 1.2)

Structure (SMILES)	solubility [µg/mL]
CN1CC(=O)N2[C@@H](Cc3ccc(OP(=O)(O)O)cc3)C(=O)N(Cc3cccc4ccccc34)C[C@@H]2N1C(=O)NCc1ccccc1 [Compound 1]	60.1 (≈ 93.4 µM)

same assay, conditions: 37 °C, pH 6.8, fassgf or other biorelevant, thermodynamic from solid, Solubility JP2 (pH 6.8)

Structure (SMILES)	solubility [µg/mL]
CN1CC(=O)N2[C@@H](Cc3ccc(OP(=O)(O)O)cc3)C(=O)N(Cc3cccc4ccccc34)C[C@@H]2N1C(=O)NCc1ccccc1 [Compound 1]	1800 (≈ 2790 µM)
